Measured values taken from patent US20150030989A1, “Handheld Device for Delivering Photodynamic Therapy” (The Forsyth Institute, priority 2012, published 2015).
Like-named read-outs stand apart in the source and are kept apart here. Each block holds one molecule with its values, some of them ahead of it.

Key:
[1] = system: multispecies root canal biofilms comprising Actinomyces israelii, Fusobacterium nucleatum subspecies nucleatum, Porphyromonas gingivalis, and Prevotella …; test: PDT on multispecies root canal biofilms in extracted human teeth, CFU assay; assay type: cell-based; details: MB 25 μg/mL 10 minutes, red light 665 nm 30 J/cm^2
[2] = system: osteoblasts; details: for reduction of viability, MB alone: human, 50 μg/mL
Method: (§1) In this study, the viability of human gingival fibroblasts and osteoblasts in vitro was assessed after exposure to methylene blue (MB) and red light with parameters similar to those that may be applied in a clinical setting. […] Both cell types were sensitized with 50 μg/mL methylene blue followed by exposure to red light at 665 nm for 5 minutes with an irradiance of 10, 20, and 40 mW/cm^2. The power densities were 10, 20, and 40 mW/cm^2, corresponding with energy fluencies of 3, 6, and 12 J/cm^2, respectively. In previous studies, light with a power density of 100 mW/cm^2 was used for killing endodontic pathogens within infected root canal specimens in vitro. A portion of that light propagates in dentin and escapes from the tooth. The power density of light escaping from the root specimen ranges from 5 to 10 mW/cm^2 depending on the morphology of the root canal system. In the present study, up to fourfold greater power densities were used.
(§2) After photodynamic therapy (PDT), cell viability and mitochondrial activity were evaluated by the neutral red and MTT assay, respectively. The assessment of PDT-induced apoptosis was investigated by western blot analysis using cleaved poly(ADPribose) polymerase-specific antibodies. […] Osteoblasts (A) and fibroblasts (B) were treated with MB only (lane MB+), light only (lane L+), or light and MB (lane L+MB+). Control cultures were left untreated (lane −) or treated with 200 μmol/L staurosporine (lane +). Twenty-four hours after treatment, cultures were stopped and analyzed by western blot using cleaved PARP− and b-actin-specific antibodies.

[3] = system: Peptostreptocococcus micros (ATCC 33270); test: PDT on endodontic pathogens in planktonic phase: P. micros; assay type: cell-based; details: methylene blue 25 μg/ml, 5 minutes, mean ± standard error; for Surviving species, PDT: red light 665 nm 30 J/cm^2
Method: (§3) The effects of PDT were investigated on endodontic pathogens in planktonic phase as well as on Enterococcus faecalis biofilms in experimentally infected root canals of extracted teeth. Strains of Porphyromonas gingivalis (ATCC 33277), P. intermedia (ATCC 25611), Fusobacterium nucleatum nucleatum (ATCC 25586), Peptostreptocococcus micros (ATCC 33270), Porphyromonas endodontalis (ATCC 35406), and E. faecalis (ATCC 29212) were sensitized with methylene blue (MB) (25 μg/ml) for 5 minutes followed by exposure to res light of 665 nm with an energy fluence of 30 J/cm^2. […] In Table 1, Surviving species are expressed as percentage-of-controls receiving neither methylene blue nor light. Each value is the mean of values obtained from 2 to 4 experiments (±standard error). The same concentration of MB in combination with red light (222 J/cm^2) was able to eliminate 97% of E. faecalis biofilm bacteria in root canals. Light was uniformly delivered at 360 degrees in the root canal system with a flexible optical fiber with cylindrical diffusers and a diameter of 500 μm. Table 1 presents the survival of endodontic bacteria after their incubation only with methylene blue (25 μg/ml) or methylene blue (25 μg/ml) and red light (30 J/cm^2): […]

[4] = system: osteoblasts; test: PDT-induced apoptosis, western blot for cleaved PARP, osteoblasts; assay type: cell-based, human; details: twenty-four hours after treatment
Method: as §2

[5] = system: human gingival fibroblasts; test: PDT-induced apoptosis, western blot for cleaved PARP, fibroblasts; assay type: cell-based; details: twenty-four hours after treatment
Method: as §2

[6] = system: E. faecalis (ATCC 29212); test: PDT on endodontic pathogens in planktonic phase: E. faecalis; assay type: cell-based, Enterococcus faecalis
Method: as §3

[7] = system: Porphyromonas endodontalis (ATCC 35406); test: PDT on endodontic pathogens in planktonic phase: P. endodontalis; assay type: cell-based; details: methylene blue 25 μg/ml, 5 minutes; for Surviving species, PDT: red light 665 nm 30 J/cm^2
Method: as §3

[8] = system: Fusobacterium nucleatum nucleatum (ATCC 25586); test: PDT on endodontic pathogens in planktonic phase: F. nuc. nuc.; assay type: cell-based; details: methylene blue 25 μg/ml, 5 minutes, mean ± standard error; for Surviving species, PDT: red light 665 nm 30 J/cm^2
Method: as §3

[9] = system: Enterococcus faecalis biofilms; test: PDT on E. faecalis biofilms in experimentally infected root canals of extracted teeth; assay type: cell-based; details: MB 25 μg/ml in combination with red light 222 J/cm^2
[10] = system: human gingival fibroblasts; test: Cell viability, neutral red assay, fibroblasts; assay type: cell-based; details: 50 μg/mL MB, no light, 0 and 24 hours
Method: as §1
After photodynamic therapy (PDT), cell viability and mitochondrial activity were evaluated by the neutral red and MTT assay, respectively. The assessment of PDT-induced apoptosis was investigated by western blot analysis using cleaved poly(ADPribose) polymerase-specific antibodies. […] Twenty-four hours after treatment, cultures were stopped and analyzed by western blot using cleaved PARP− and b-actin-specific antibodies.

[11] = system: E. faecalis (ATCC 29212)
[12] = system: Porphyromonas gingivalis (ATCC 33277); test: PDT on endodontic pathogens in planktonic phase: P. gingivalis; assay type: cell-based; details: methylene blue 25 μg/ml, 5 minutes; for Surviving species, PDT: red light 665 nm 30 J/cm^2
Method: as §3

[13] = system: P. intermedia (ATCC 25611); test: PDT on endodontic pathogens in planktonic phase: P. intermedia; assay type: cell-based, Prevotella intermedia; details: methylene blue 25 μg/ml, 5 minutes; for Surviving species, PDT: red light 665 nm 30 J/cm^2
Method: as §3

[14] = system: human gingival fibroblasts; details: 24 h, 50 μg/mL
Method: (§4) FIG. 7 presents two bar graphs on the growth of methylene blue (MB)-sensitized gingival fibroblasts and osteoblasts as determined by the MTT assay after their exposure to red light.
as §1, §2

[15] = system: osteoblasts
Method: as §4, §1, §2

reduction of mitochondrial activity, L40+MB+ [14]: 18.5%
reduction of mitochondrial activity, MB alone ([15]; human, 0 h, 50 μg/mL): 3.1%
reduction of mitochondrial activity, L20+MB+ ([15]; human, 24 h, 50 μg/mL): approximately 34%
reduction of mitochondrial activity, L40+MB+ ([15]; human, 24 h, 50 μg/mL): approximately 34%
reduction of mitochondrial activity, MB alone ([15]; human, 24 h, 50 μg/mL): 13.5%
Structure (SMILES): CN(C)c1ccc2nc3ccc(=[N+](C)C)cc-3sc2c1 [methylene blue]
reduction of colony-forming unit counts (CFU), PDT [1]: up to 80%
mean CFU levels, combination of light and MB versus control or MB alone ([1]; FIG. 5): significantly lower than either control or MB alone
reduction of viability, MB alone ([2]; 0 h): 9.4%
reduction of viability, MB alone ([2]; 24 h): 14.6%
Surviving species, only methylene blue ([3]; no light): 21 ± 10.6 percentage-of-controls
Surviving species, PDT [3]: 0 percentage-of-controls
Surviving species, PDT ([3]; listed as MB): fully eliminated
PARP cleavage, light and MB ([4]; lane L+MB+): Neither treatment resulted in PARP cleavage
PARP cleavage, MB only ([4]; lane MB+): Neither treatment resulted in PARP cleavage
PARP cleavage, light and MB ([5]; lane L+MB+): Neither treatment resulted in PARP cleavage
PARP cleavage, MB only ([5]; lane MB+): Neither treatment resulted in PARP cleavage
Surviving species, only methylene blue ([6]; methylene blue 25 μg/ml, 5 minutes, no light, mean ± standard error): 94.5 ± 17.6 percentage-of-controls
Surviving species, PDT ([6]; methylene blue 25 μg/ml, 5 minutes, red light 665 nm 30 J/cm^2, mean ± standard error): 47 ± 12.1 percentage-of-controls
killing ([6]; planktonic, MB 25 μg/ml 5 minutes, light 665 nm 30 J/cm^2): 53%
Surviving species, only methylene blue ([7]; no light): 0 percentage-of-controls
Surviving species, PDT [7]: 0 percentage-of-controls
Surviving species, PDT ([7]; listed as MB): fully eliminated
Surviving species, only methylene blue ([8]; no light): 5.5 ± 0.4 percentage-of-controls
Surviving species, PDT [8]: 0 percentage-of-controls
Surviving species, PDT ([8]; listed as MB): fully eliminated
E. faecalis biofilm bacteria in root canals eliminated [9]: 97%
effect of MB alone on viability [10]: no effect
reduction of E. faecalis viability, PDT ([11]; 6.25 μg/ml MB 5 minutes, light 665 nm 60 J/cm^2): 77.5%
reduction of bacterial viability, MB alone ([11]; 6.25 μg/ml MB, no light): 19.5%
Surviving species, only methylene blue ([12]; no light, mean ± standard error): 6.7 ± 0.1 percentage-of-controls
Surviving species, PDT [12]: 0 percentage-of-controls
Surviving species, PDT ([12]; listed as MB): fully eliminated
Surviving species, only methylene blue ([13]; no light): 0 percentage-of-controls
Surviving species, PDT [13]: 0 percentage-of-controls
Surviving species, PDT ([13]; listed as MB): fully eliminated

effect of sodium hypochlorite on osteoblasts, neutral red assay [2]: completely eliminated cells
effect of sodium hypochlorite on osteoblasts, MTT assay [15]: completely eliminated cells
Structure (SMILES): OCl [sodium hypochlorite]
